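Method: 48-hour compound exposure of cells in 96-well plates, five concentrations, linear interpolation of endpoints. The concentration for 50% growth inhibition is given as GI50.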 Activity calls are given as the source filed them. No stated cut-off is given here; in the data, active = GI50 up to about 1.1 µM and inactive = higher.
How the values were obtained:
Experiment in all cases: NCI anticancer screen, dose series, 48 h
HOP-92 = test system: HOP-92
DU-145 = test system: DU-145
A549 = test system: A549
786-0 = test system: 786-0
OVCAR-8 = test system: OVCAR-8
MCF7 = test system: MCF7
MDA-N = test system: MDA-N
HCC 2998 = test system: HCC 2998
K562 = test system: K562
U-251 = test system: U-251
SK-MEL-28 = test system: SK-MEL-28
UACC-257 = test system: UACC-257
SR = test system: SR
NCI-H460 = test system: NCI-H460
UO-31 = test system: UO-31
CAKI-1 = test system: CAKI-1
UACC-62 = test system: UACC-62
SF-539 = test system: SF-539
CCRF-CEM = test system: CCRF-CEM
OVCAR-4 = test system: OVCAR-4

SMILES	GI50 (HOP-92)	GI50 (DU-145)	GI50 (A549)	GI50 (786-0)	GI50 (OVCAR-8)	GI50 (MCF7)	GI50 (MDA-N)	GI50 (HCC 2998)	GI50 (K562)	GI50 (U-251)	GI50 (SK-MEL-28)	GI50 (UACC-257)	GI50 (SR)	GI50 (NCI-H460)	GI50 (UO-31)	GI50 (CAKI-1)	GI50 (UACC-62)	GI50 (SF-539)	GI50 (CCRF-CEM)	GI50 (OVCAR-4)
O=[N+]([O-])/C=C/c1cc2ccc3ccccc3c2[nH]1	1.76 µM (inactive)	1.9 µM (inactive)	2.16 µM (inactive)	1.36 µM (inactive)	2.28 µM (inactive)	1.44 µM (inactive)	1.67 µM (inactive)	1.92 µM (inactive)	1.8 µM (inactive)	1.34 µM (inactive)	2.01 µM (inactive)	2.24 µM (inactive)	0.555 µM (active)	2.11 µM (inactive)	1.56 µM (inactive)	2.23 µM (inactive)	1.68 µM (inactive)	1.86 µM (inactive)	0.299 µM (active)	1.98 µM (inactive)
CCOC(=O)C1(Cc2ccc(C)cc2)Cc2ccc(C)cc2C1=O (stereo not given)	14.6 µM (inactive)	41.4 µM (inactive)	20.9 µM (inactive)	31.1 µM (inactive)	27.2 µM (inactive)	6.52 µM (inactive)	2.38 µM (inactive)	16.8 µM (inactive)	1.88 µM (inactive)	10 µM (inactive)	20.2 µM (inactive)	18.9 µM (inactive)	3.61 µM (inactive)	27.9 µM (inactive)	38.5 µM (inactive)	19.5 µM (inactive)	11.8 µM (inactive)	19.8 µM (inactive)	8.05 µM (inactive)	36.4 µM (inactive)
CCC1CCC2c3c([nH]c4ccc(C)cc34)C3C(=O)N(N(C)C)C(=O)C3C2C1 (stereo not given)	38.7 µM (inactive)	29.9 µM (inactive)	15.9 µM (inactive)	7.24 µM (inactive)	22.2 µM (inactive)	3.64 µM (inactive)	1.09 µM (active)	35.2 µM (inactive)	2.62 µM (inactive)	19.5 µM (inactive)	> 83.4 µM (inactive)	5.64 µM (inactive)	3.17 µM (inactive)	7.45 µM (inactive)	> 75 µM (inactive)	> 34.4 µM (inactive)	17.6 µM (inactive)	18.2 µM (inactive)	12.7 µM (inactive)	34 µM (inactive)
CC[C@@]1(O)C(=O)OCc2c1cc1n(c2=O)Cc2c-1nc1ccccc1c2Cl	0.0724 µM (active)	< 0.01 µM (active)	< 0.01 µM (active)	< 0.01 µM (active)	0.0146 µM (active)	< 0.01 µM (active)	0.069 µM (active)	0.521 µM (active)	0.0329 µM (active)	< 0.01 µM (active)	0.204 µM (active)	0.112 µM (active)	< 0.01 µM (active)	< 0.01 µM (active)	< 0.01 µM (active)	< 0.01 µM (active)	< 0.01 µM (active)	< 0.01 µM (active)	< 0.01 µM (active)	0.56 µM (active)
COC(=O)C1=C(C(=O)OC)SC(=C2SCSC3=C2SC(C(=O)OC)=C(C(=O)OC)C32SC3=C(CCCC3)S2)S1	56.2 µM (inactive)	> 100 µM (inactive)	> 100 µM (inactive)	74.1 µM (inactive)	> 100 µM (inactive)	> 100 µM (inactive)	> 100 µM (inactive)	> 100 µM (inactive)	> 100 µM (inactive)	47.6 µM (inactive)	> 100 µM (inactive)	> 100 µM (inactive)	> 100 µM (inactive)	> 100 µM (inactive)	> 100 µM (inactive)	> 100 µM (inactive)	> 100 µM (inactive)	44.5 µM (inactive)	> 100 µM (inactive)	> 100 µM (inactive)
C=CCN1C(=O)/C(=C/c2ccc(C)cc2)N=C1SC/C=C/C	22.6 µM (inactive)	55.3 µM (inactive)	21 µM (inactive)	29.9 µM (inactive)	30.1 µM (inactive)	29.4 µM (inactive)	22.8 µM (inactive)	41.7 µM (inactive)	25.9 µM (inactive)	27.2 µM (inactive)	50.6 µM (inactive)	32.7 µM (inactive)	17.2 µM (inactive)	40.3 µM (inactive)	47.3 µM (inactive)	> 100 µM (inactive)	39.5 µM (inactive)	77.3 µM (inactive)	26.7 µM (inactive)	41.9 µM (inactive)
CC1=C(C(=O)OC(C)C)C(c2cccc([N+](=O)[O-])c2)C(C(=O)OC(CO[N+](=O)[O-])CO[N+](=O)[O-])=C(C)N1 (stereo not given)	1.78 µM (inactive)	11.4 µM (inactive)	3.37 µM (inactive)	3.56 µM (inactive)	3.85 µM (inactive)	0.61 µM (active)	2.83 µM (inactive)	4.53 µM (inactive)	2.76 µM (inactive)	2.24 µM (inactive)	11.4 µM (inactive)	3.54 µM (inactive)	3.22 µM (inactive)	3.5 µM (inactive)	3.44 µM (inactive)	3.99 µM (inactive)	2.65 µM (inactive)	3.01 µM (inactive)	1.92 µM (inactive)	2.81 µM (inactive)
Cc1cc(S(=O)(=O)Nc2nc(Nc3ccc4ccccc4c3)n[nH]2)c(S)cc1Cl	52.5 µM (inactive)	54.3 µM (inactive)	55.7 µM (inactive)	47.3 µM (inactive)	64.3 µM (inactive)	74.8 µM (inactive)	13.7 µM (inactive)	61.4 µM (inactive)	> 100 µM (inactive)	39.9 µM (inactive)	> 100 µM (inactive)	34.3 µM (inactive)	> 100 µM (inactive)	34.8 µM (inactive)	> 100 µM (inactive)	52.8 µM (inactive)	66.4 µM (inactive)	14 µM (inactive)	> 100 µM (inactive)	79.1 µM (inactive)
N#Cc1nc(-c2ccccc2C(=O)O)oc1N	> 100 µM (inactive)	> 100 µM (inactive)	> 100 µM (inactive)	> 100 µM (inactive)	> 100 µM (inactive)	> 100 µM (inactive)	> 100 µM (inactive)	> 100 µM (inactive)	> 100 µM (inactive)	> 100 µM (inactive)	> 100 µM (inactive)	> 100 µM (inactive)	> 100 µM (inactive)	> 100 µM (inactive)	> 100 µM (inactive)	> 100 µM (inactive)	> 100 µM (inactive)	> 100 µM (inactive)	> 100 µM (inactive)	> 100 µM (inactive)
COC(=O)[C@@H]1C[C@]2(CC=C(C)C)c3ccccc3N(S(=O)(=O)c3ccccc3)[C@@H]2N1C(=O)OC	15.1 µM (inactive)	> 100 µM (inactive)	11.6 µM (inactive)	25.1 µM (inactive)	20.3 µM (inactive)	8.87 µM (inactive)	26.9 µM (inactive)	10.6 µM (inactive)	9.55 µM (inactive)	13.3 µM (inactive)	47.1 µM (inactive)	10.7 µM (inactive)	5.33 µM (inactive)	14.1 µM (inactive)	28.8 µM (inactive)	27.2 µM (inactive)	4.5 µM (inactive)	24.8 µM (inactive)	27.9 µM (inactive)	18.1 µM (inactive)
Cc1cc(S(=O)(=O)N2CCNNC2=O)c(S)cc1Cl	48.4 µM (inactive)	> 100 µM (inactive)	56.4 µM (inactive)	19.9 µM (inactive)	> 100 µM (inactive)	77.3 µM (inactive)	> 100 µM (inactive)	> 100 µM (inactive)	37.2 µM (inactive)	> 100 µM (inactive)	20 µM (inactive)	> 100 µM (inactive)	> 100 µM (inactive)	> 100 µM (inactive)	> 100 µM (inactive)	33.5 µM (inactive)	> 100 µM (inactive)	37 µM (inactive)	37 µM (inactive)	> 100 µM (inactive)
O=C1c2c(O)cccc2C(C(=O)CCCCC(=O)C2c3cccc(O)c3C(=O)c3c(O)cccc32)c2cccc(O)c21	0.627 µM (active)	0.671 µM (active)	0.483 µM (active)	2.24 µM (inactive)	0.733 µM (active)	0.845 µM (active)	0.879 µM (active)	0.791 µM (active)	0.661 µM (active)	0.433 µM (active)	0.877 µM (active)	0.526 µM (active)	0.798 µM (active)	0.403 µM (active)	0.504 µM (active)	3.92 µM (inactive)	0.724 µM (active)	0.399 µM (active)	0.652 µM (active)	0.782 µM (active)
CCOC(=O)C1=C(C)C(C(=O)OC)/C(=C/c2cccc3cccnc23)C1=O (stereo not given)	> 10 µM (inactive)	> 10 µM (inactive)	> 10 µM (inactive)	> 10 µM (inactive)	> 10 µM (inactive)	4.76 µM (inactive)	> 10 µM (inactive)	> 10 µM (inactive)	> 10 µM (inactive)	> 10 µM (inactive)	> 10 µM (inactive)	> 10 µM (inactive)	> 10 µM (inactive)	> 10 µM (inactive)	> 10 µM (inactive)	> 10 µM (inactive)	> 10 µM (inactive)	> 10 µM (inactive)	> 10 µM (inactive)	> 10 µM (inactive)
COc1ccc(/C=C/C(=O)N[C@@H]2C(=O)N3[C@@H]2SC(C)(C)[C@@H]3C(=O)O)cc1	47.8 µM (inactive)	> 100 µM (inactive)	> 100 µM (inactive)	> 100 µM (inactive)	> 100 µM (inactive)	> 100 µM (inactive)	> 100 µM (inactive)	> 100 µM (inactive)	> 100 µM (inactive)	> 100 µM (inactive)	> 100 µM (inactive)	> 100 µM (inactive)	> 100 µM (inactive)	> 100 µM (inactive)	> 100 µM (inactive)	> 100 µM (inactive)	> 100 µM (inactive)	> 100 µM (inactive)	> 100 µM (inactive)	> 100 µM (inactive)

Source: ChEMBL document CHEMBL1201862, “PubChem BioAssay data set” (2004)
